Experimental data from PubChem BioAssay (NCI).
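Each compound was tested at five concentrations against cells in 96-well plates for 48 hours. TGI is the concentration that stops growth completely.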

Experiments:
Test in all cases: inhibition of tumour cell growth, NCI panel, 48 h
HL-60(TB) leukemia = tested on: HL-60(TB) leukemia
HT29 colon = tested on: HT29 colon
SK-OV-3 ovarian = tested on: SK-OV-3 ovarian
PC-3 prostate = tested on: PC-3 prostate
TK-10 renal = tested on: TK-10 renal
A498 renal = tested on: A498 renal
BT-549 breast = tested on: BT-549 breast
COLO 205 colon = tested on: COLO 205 colon
NCI-H226 lung = tested on: NCI-H226 lung
MDA-MB-435 = tested on: MDA-MB-435
SF-268 CNS = tested on: SF-268 CNS
A549 NSCLC = tested on: A549 NSCLC
OVCAR-5 ovarian = tested on: OVCAR-5 ovarian
HS 578T breast = tested on: HS 578T breast
NCI-H522 lung = tested on: NCI-H522 lung
786-0 renal = tested on: 786-0 renal
OVCAR-3 ovarian = tested on: OVCAR-3 ovarian
CAKI-1 renal = tested on: CAKI-1 renal
IGROV1 ovarian = tested on: IGROV1 ovarian
MALME-3M melanoma = tested on: MALME-3M melanoma
SR leukemia = tested on: SR leukemia
OVCAR-8 ovarian = tested on: OVCAR-8 ovarian
SNB-75 CNS = tested on: SNB-75 CNS
SK-MEL-2 melanoma = tested on: SK-MEL-2 melanoma
SNB-19 CNS = tested on: SNB-19 CNS
HCT-116 colon = tested on: HCT-116 colon
UACC-62 melanoma = tested on: UACC-62 melanoma
MOLT-4 leukemia = tested on: MOLT-4 leukemia
CCRF-CEM leukemia = tested on: CCRF-CEM leukemia
NCI-H23 lung = tested on: NCI-H23 lung
K-562 leukemia = tested on: K-562 leukemia
HCC-2998 colon = tested on: HCC-2998 colon
EKVX NSCLC = tested on: EKVX NSCLC
NCI-H460 lung = tested on: NCI-H460 lung
NCI/ADR-RES ovarian = tested on: NCI/ADR-RES ovarian
HOP-62 NSCLC = tested on: HOP-62 NSCLC
KM12 colon = tested on: KM12 colon
HOP-92 NSCLC = tested on: HOP-92 NSCLC
ACHN renal = tested on: ACHN renal
MCF7 breast = tested on: MCF7 breast
DU-145 prostate = tested on: DU-145 prostate
M14 melanoma = tested on: M14 melanoma
HCT-15 colon = tested on: HCT-15 colon
U251 CNS = tested on: U251 CNS
SW-620 colon = tested on: SW-620 colon
SN12C renal = tested on: SN12C renal
UO-31 renal = tested on: UO-31 renal
OVCAR-4 ovarian = tested on: OVCAR-4 ovarian
SF-539 CNS = tested on: SF-539 CNS
UACC-257 melanoma = tested on: UACC-257 melanoma
SF-295 CNS = tested on: SF-295 CNS
RPMI-8226 leukemia = tested on: RPMI-8226 leukemia
LOX IMVI melanoma = tested on: LOX IMVI melanoma
MDA-N = tested on: MDA-N
MDA-MB-231 breast = tested on: MDA-MB-231 breast
SK-MEL-28 melanoma = tested on: SK-MEL-28 melanoma
T-47D breast = tested on: T-47D breast
SK-MEL-5 melanoma = tested on: SK-MEL-5 melanoma
RXF 393 renal = tested on: RXF 393 renal

In the case of `O=C(N/N=C\C=C\c1ccc([N+](=O)[O-])o1)C(=O)N/N=C\C=C\c1ccc([N+](=O)[O-])o1`, the TGI (HL-60(TB) leukemia) is reported as 87.1 µM, the TGI (HT29 colon) is reported as > 100 µM and the TGI (SK-OV-3 ovarian) is reported as > 100 µM. For the same molecule, the TGI (PC-3 prostate) was > 100 µM, the TGI (TK-10 renal) was > 100 µM and the TGI (A498 renal) was > 100 µM. The TGI (BT-549 breast) was > 100 µM, the TGI (COLO 205 colon) was > 100 µM and the TGI (NCI-H226 lung) was > 100 µM. For the same molecule, the TGI (MDA-MB-435) was > 100 µM, the TGI (SF-268 CNS) was > 100 µM and the TGI (A549 NSCLC) was > 100 µM. For the same molecule, the TGI (OVCAR-5 ovarian) was > 100 µM, the TGI (HS 578T breast) was > 100 µM and the TGI (NCI-H522 lung) was > 100 µM. For the same molecule, the TGI (786-0 renal) was > 100 µM, the TGI (OVCAR-3 ovarian) was 55 µM and the TGI (CAKI-1 renal) was > 100 µM. For the same molecule, the TGI (IGROV1 ovarian) was > 100 µM, the TGI (MALME-3M melanoma) was > 100 µM and the TGI (SR leukemia) was > 100 µM. For the same molecule, the TGI (OVCAR-8 ovarian) was 59.1 µM, the TGI (SNB-75 CNS) was > 100 µM and the TGI (SK-MEL-2 melanoma) was > 100 µM. The TGI (SNB-19 CNS) was > 100 µM, the TGI (HCT-116 colon) was > 100 µM and the TGI (UACC-62 melanoma) was > 100 µM. The TGI (MOLT-4 leukemia) was > 100 µM, the TGI (CCRF-CEM leukemia) was 3.55 µM and the TGI (NCI-H23 lung) was > 100 µM. The TGI (K-562 leukemia) was > 100 µM, the TGI (HCC-2998 colon) was > 100 µM and the TGI (EKVX NSCLC) was > 100 µM. For the same molecule, the TGI (NCI-H460 lung) was > 100 µM, the TGI (NCI/ADR-RES ovarian) was 70.1 µM and the TGI (HOP-62 NSCLC) was > 100 µM. For the same molecule, the TGI (KM12 colon) was > 100 µM, the TGI (HOP-92 NSCLC) was > 100 µM and the TGI (ACHN renal) was > 100 µM. For the same molecule, the TGI (MCF7 breast) was > 100 µM, the TGI (DU-145 prostate) was > 100 µM and the TGI (M14 melanoma) was > 100 µM. For the same molecule, the TGI (HCT-15 colon) was > 100 µM, the TGI (U251 CNS) was > 100 µM and the TGI (SW-620 colon) was 58.8 µM. The TGI (SN12C renal) was > 100 µM, the TGI (UO-31 renal) was > 100 µM and the TGI (OVCAR-4 ovarian) was > 100 µM. The TGI (SF-539 CNS) was > 100 µM, the TGI (UACC-257 melanoma) was > 100 µM and the TGI (SF-295 CNS) was > 100 µM. The TGI (RPMI-8226 leukemia) was > 100 µM, the TGI (LOX IMVI melanoma) was > 100 µM and the TGI (MDA-N) was > 100 µM. The TGI (MDA-MB-231 breast) was > 100 µM, the TGI (SK-MEL-28 melanoma) was > 100 µM and the TGI (T-47D breast) was > 100 µM. The TGI (SK-MEL-5 melanoma) was > 100 µM and the TGI (RXF 393 renal) was > 100 µM.
